Experimental data from patent US20050148534A1, “Small molecule compositions and methods for increasing drug efficiency using compositions thereof” (priority 2003, published 2005).
Like-named read-outs stand apart in the source and are kept apart here.

Tests used:
[1] = Serum stability in RPMI1640 medium containing 10% fetal bovine serum; format: in vitro ADME
Protocol: The stability of conjugates was measured in RPMI1640 cell culture medium containing 10% fetal bovine serum. The serum-containing medium was pre-warmed at 37° C. for 3 min prior to addition of test articles. Test articles, prepared in DMSO as 5 mM stocks, were added to the cell culture media to a final concentration of […]. Aliquots ([…]) were withdrawn in triplicate at 0, 4, 8, 24 and 72 hours and combined with the same volume of ice-cold acetonitrile to terminate the reaction. The mixture was centrifuged at 2,000×g for 10 minutes. One part of the supernatant was mixed with four parts of deionized water to bring down the percentage of organic solvent. The diluted samples were then assayed by LC/MS for the test article. The natural log of the percent remaining was plotted versus time. A linear fit was used to determine the rate constant. The fit was truncated after the percent of remaining test article was less than 10%. The elimination half-lives associated with the disappearance of test articles were determined to compare their relative stability. The assays were carried out by Absorption Systems (Exton, Pa.).

[2] = system: HT29; experiment: Cytotoxicity assay, HT29 SSA (SSA not explained); format: cell-based; settings: Homo sapiens, HT-29; read-out: HT29 (EC50 Ave) SSA
[3] = system: HT-29 colorectal carcinoma; experiment: Cytotoxicity assay (soft agar), HT-29; settings: Homo sapiens
[4] = Cytotoxicity assay (soft agar), HT-29; settings: human
[5] = system: breast carcinoma, colon carcinoma and leukemia; experiment: Cytotoxicity of drug-thymidine conjugates (Example 22); format: cell-based
[6] = system: tubulin; experiment: Fluorescence-based microtubule polymerization assay (MPA); format: biochemical; settings: mean percentage of paclitaxel or vinblastine activity; 0.75-10 micromolar
Method in brief: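 Tubulin polymerization was followed by fluorescence (ex 360/em 405 nm) in a commercial kit with 1 mg/ml BSA added to every assay, glycerol being omitted for paclitaxel conjugates. Parent drugs and conjugates were tested at 0.75, 1.5, 3 and 10 micromolar final. Curves from the linear range of the dose responses were compared.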

[7] = system: HT-29 colorectal carcinoma; experiment: Cytotoxicity assay (monolayer), HT-29; format: cell-based; settings: Homo sapiens
Protocol: Statistical Assoc., 81, 991-999, 1986.
Monolayer assays with tumor cell lines (MCF-7 breast carcinoma and HT-29 colorectal carcinoma from ATCC) were carried out in triplicate in 96-well plates with RPMI1640 medium containing 5% fetal bovine serum, 100 U/ml penicillin and 100 μg/ml streptomycin. Normal human foreskin fibroblasts (HFF #CC-2509) were from Cambrex and were cultured in FGM-2 medium. Exponentially growing cells (5,000 MCF-7 or HT-29; 1,500 HFF) were plated in 100 μl medium and incubated overnight (5% CO2, 37° C.). Compounds (20 pM to 20 μM final concentration, 6-8 doses) and vehicle (DMSO) controls were added and the incubation was continued for an additional 72 hours. Final cell density was determined by incubating cultures with 25 μl AlamarBlue reagent (BioSource, Camarillo, Calif.) for 4 hours, followed by determination of fluorescence at excitation of 544 nm and emission of 590 nm with a SpectroMax Gemini EM fluorescence plate reader (Molecular Devices, Sunnyvale, Calif.). EC50 values were generated from dose-response curves by a 4-parameter method using Softmax PRO software. Mean EC50s (±SD) represent the average of all tests carried out for all lots of a given compound. […] Statistical Assoc., 81, 991-999 (1986).

[8] = Cytotoxicity assay (soft agar), MCF-7; settings: human
[9] = system: MCF-7 breast carcinoma; experiment: Cytotoxicity assay (soft agar), MCF-7; settings: Homo sapiens

- Relative Percent Remaining at 0 hr ([1]; 37° C., medium with 10% fetal bovine serum, 0 hr): 100%
- Relative Percent Remaining at 4 hr ([1]; 37° C., medium with 10% fetal bovine serum, 4 hr): 73%
- Relative Percent Remaining at 8 hr ([1]; 37° C., medium with 10% fetal bovine serum, 8 hr): 59%
- Relative Percent Remaining at 24 hr ([1]; 37° C., medium with 10% fetal bovine serum, 24 hr): 28%
- Relative Percent Remaining at 72 hr ([1]; 37° C., medium with 10% fetal bovine serum, 72 hr): <3.0%
- half-life ([1]; bovine): 11 h
Structure (SMILES): CC(=O)O[C@H]1C(=O)[C@@]2(C)[C@H]([C@H](OC(=O)c3ccccc3)[C@]3(O)C[C@H](OC(=O)[C@H](O)[C@@H](NC(=O)c4ccccc4)c4ccccc4)C(C)=C1C3(C)C)[C@]1(OC(C)=O)CO[C@@H]1C[C@@H]2O [Paclitaxel]
- EC50 [2]: < 100 nM
- EC50 ([3]; HT-29, read-out: HT29 (EC50 Ave) SA): < 100 nM
- EC50 ([3]; HT-29, read-out: HT-29 Soft Agar EC50): 15 ± 2 nM
- selectivity ratio [4]: 0.6
- EC50 [5]: 5 to 8 nM
- Ave. MPA Act [6]: C (C>100)
- EC50 ([7]; mean ± SD, read-out: HT-29 Monolayer EC50): 5 ± 3 nM
- EC50 ([7]; monolayer, 72 hours, AlamarBlue, read-out: HT29 (EC50 Ave) ML): < 100 nM
- selectivity ratio [8]: 1.4
- EC50 ([9]; MCF7, read-out: MCF7 (EC50 Ave) SA): < 100 nM
- EC50 ([9]; MCF7, read-out: MCF-7 Soft Agar EC50): 6 ± 3 nM
